Test results: patent publication US20250361241A1, “HPK1 INHIBITOR AND MEDICAL USE THEREOF” (Betta Pharmaceuticals Co., Ltd., priority 2022, published 2025)
Where “and” joins values, the source holds several entries; their conditions need not be identical. Identical values can stand only once.

Assays:
HPK1 = HPK1 (Homo sapiens (Human), UniProt Q92918); assay: HPK1 enzyme activity detection (1 mM ATP system), ADP-Glo with MBP substrate, Pharmacological Experiment 2; assay type: biochemical
Experimental: (§1) Pharmacological Experiment 2: […] The test compound was serially diluted using DMSO to 200 times the detection concentration. […] Centrifuge at 1000×g for 30 seconds and incubate at 25° C. for 15 minutes. • (5) Adding ATP and substrate: Add 2 μL of 2×ATP-MBP solution to the 384-well plate and centrifuge at 1000×g for 30 seconds. Seal the plate with a sealing film and incubate at 25° C. for 60 minutes. • (6) Add ADP-Glo reagent: Add 4 μL ADP-Glo reagent (Promega, V9103) to the 384-well plate, centrifuge at 1000×g for 30 seconds, and incubate at 25° C. for 60 minutes. • (7) Detection of luminescent signal; Add 8 μL of luminescent detection reagent (Promega, V9103) to a 384-well plate, centrifuge at 1000×g for 30 seconds, and incubate at 25° C. for 60 minutes. The chemiluminescent signal was read using a BMG instrument. • (8) Calculation of percentage inhibition rate: […] See Table 2 for the enzymatic IC 50 data of the example compounds on HPK1.

GLK = GLK (Homo sapiens (Human), UniProt Q8IVH8); assay: GLK kinase assay (1 mM ATP system), ADP-Glo; assay type: biochemical
Chain of GLK (Q8IVH8 whole entry, species assumed): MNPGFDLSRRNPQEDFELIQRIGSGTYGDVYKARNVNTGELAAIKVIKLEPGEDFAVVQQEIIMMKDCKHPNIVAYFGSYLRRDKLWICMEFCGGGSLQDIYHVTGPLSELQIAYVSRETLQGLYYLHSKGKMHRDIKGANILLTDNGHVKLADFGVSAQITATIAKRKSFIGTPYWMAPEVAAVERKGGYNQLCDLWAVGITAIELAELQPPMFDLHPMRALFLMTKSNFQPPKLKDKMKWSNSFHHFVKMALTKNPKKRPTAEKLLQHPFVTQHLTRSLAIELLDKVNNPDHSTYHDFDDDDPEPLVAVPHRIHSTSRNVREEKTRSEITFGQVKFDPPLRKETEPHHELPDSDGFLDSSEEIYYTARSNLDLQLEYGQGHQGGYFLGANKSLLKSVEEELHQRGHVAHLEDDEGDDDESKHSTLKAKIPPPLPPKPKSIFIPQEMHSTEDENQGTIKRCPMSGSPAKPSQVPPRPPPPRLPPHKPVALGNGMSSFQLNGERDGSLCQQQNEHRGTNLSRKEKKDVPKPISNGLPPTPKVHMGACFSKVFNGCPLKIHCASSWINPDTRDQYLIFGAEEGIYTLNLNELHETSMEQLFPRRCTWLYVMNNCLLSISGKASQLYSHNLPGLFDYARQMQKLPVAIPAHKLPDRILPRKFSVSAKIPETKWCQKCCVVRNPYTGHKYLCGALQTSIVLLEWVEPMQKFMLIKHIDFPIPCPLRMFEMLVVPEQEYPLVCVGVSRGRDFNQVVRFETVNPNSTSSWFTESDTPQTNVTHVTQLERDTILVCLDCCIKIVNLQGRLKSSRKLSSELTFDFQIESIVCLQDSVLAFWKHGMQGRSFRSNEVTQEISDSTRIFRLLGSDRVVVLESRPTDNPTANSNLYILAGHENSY
Experimental: as §1, with “Solution” for “Pharmacological Experiment 2:”, “Add” for “Adding”, “signal:” for “signal;”, “microplate reader.” for “instrument.”, “GLK kinase IC50” for “enzymatic IC 50”

Chain of HPK1 (Q92918 whole entry, species assumed): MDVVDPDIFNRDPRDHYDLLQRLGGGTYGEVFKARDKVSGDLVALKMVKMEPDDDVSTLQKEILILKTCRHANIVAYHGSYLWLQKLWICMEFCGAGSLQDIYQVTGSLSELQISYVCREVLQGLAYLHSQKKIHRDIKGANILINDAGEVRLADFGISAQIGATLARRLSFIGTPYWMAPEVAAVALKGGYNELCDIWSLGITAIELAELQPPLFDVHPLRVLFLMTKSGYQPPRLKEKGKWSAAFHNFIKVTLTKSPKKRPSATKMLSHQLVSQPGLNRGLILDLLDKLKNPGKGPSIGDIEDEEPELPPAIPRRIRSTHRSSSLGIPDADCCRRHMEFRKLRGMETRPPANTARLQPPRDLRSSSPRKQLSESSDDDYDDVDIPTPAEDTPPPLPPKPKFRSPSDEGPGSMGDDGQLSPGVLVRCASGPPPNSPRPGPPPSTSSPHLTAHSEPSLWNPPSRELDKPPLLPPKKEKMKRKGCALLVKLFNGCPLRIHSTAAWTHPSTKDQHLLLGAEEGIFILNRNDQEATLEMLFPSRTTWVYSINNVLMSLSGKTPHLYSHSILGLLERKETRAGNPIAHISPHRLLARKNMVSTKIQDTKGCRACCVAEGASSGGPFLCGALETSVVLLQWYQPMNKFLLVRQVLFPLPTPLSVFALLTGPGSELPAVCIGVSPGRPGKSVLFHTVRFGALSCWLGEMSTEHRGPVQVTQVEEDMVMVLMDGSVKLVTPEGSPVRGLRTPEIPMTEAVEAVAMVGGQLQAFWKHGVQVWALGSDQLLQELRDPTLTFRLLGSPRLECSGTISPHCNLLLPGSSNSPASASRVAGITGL

IC50 (HPK1)	IC50 (GLK) [nM]	Compound
5.58 nM	598	O=C1NCc2c(-c3cnc4cc(F)ccn34)ccc(Nc3ccc4c(n3)C(N3CCCCC3)CC43CCOCC3)c21 (centres unmarked) [Compound 90]
34.5 nM	2170	O=C1NCc2c(-c3cnc4n3CCOC4)ccc(Nc3ccc4c(n3)CNCC43CCOCC3)c21 [Compound 153]
29.8 nM	> 3000	CC(C)N1Cc2nc(Nc3ccc(-c4cnc5cc(F)ccn45)c4c3C(=O)NC4)ccc2C2(CCOCC2)C1 [Compound 119]
8.47 nM	2760	CCN1Cc2nc(Nc3ccc(-c4cnc5cc(F)ccn45)c4c3C(=O)NC4)ccc2C2(CCOCC2)C1 [Compound 124]
86.2 nM	> 30000	CN1CCN(C2CC3(CCOCC3)c3ccc(Nc4ccc(-c5cnc6cc(F)ccn56)c5c4C(=O)NC5)nc32)CC1 (centres unmarked) [Compound 91]
3.55 nM	286	CO[C@H]1CCN(C2CC3(CCOCC3)c3ccc(Nc4ccc(-c5cnc6cc(F)ccn56)c5c4C(=O)NC5)nc32)C1 (some centres unmarked) [Compound 76]
3.48 nM	206	CO[C@@H]1CCN(C2CC3(CCOCC3)c3ccc(Nc4ccc(-c5cnc6cc(F)ccn56)c5c4C(=O)NC5)nc32)C1 (some centres unmarked) [Compound 73]
3.46 nM	697	COCCNC1CC2(CCOCC2)c2ccc(Nc3ccc(-c4cnc5cc(F)ccn45)c4c3C(=O)NC4)nc21 (centres unmarked) [Compound 106]
2.61 nM	158	CN(C)C1COC2(CCOCC2)c2ccc(Nc3ccc(-c4cnc5cc(Cl)ccn45)c4c3C(=O)NC4)nc21 (centres unmarked) [Compound 86]
8.47 nM	3200	CN(C)C1COC2(CCC2)c2ccc(Nc3ccc(-c4cnc5cc(F)ccn45)c4c3C(=O)NC4)nc21 (centres unmarked) [Compound 173]
5.29 nM	208	O=C1NCc2c(-c3cnc4cc(F)ccn34)ccc(Nc3ccc4c(n3)C(N3CC5(COC5)C3)CC43CCOCC3)c21 (centres unmarked) [Compound 88]
8.85 nM	970	CC(C)NC1CC2(CCOCC2)c2ccc(Nc3ccc(-c4cnc5cc(OC(F)F)ccn45)c4c3C(=O)NC4)nc21 (centres unmarked) [Compound 179]
27 nM	> 25000	CN(C1CCOCC1)C1CC2(CCOCC2)c2ccc(Nc3ccc(-c4cnc5cc(F)ccn45)c4c3C(=O)NC4)nc21 (centres unmarked) [Compound 93]
11 nM	> 3000	O=C1NCc2c(-c3cnc4cc(F)ccn34)ccc(Nc3ccc4c(n3)CN(CC3CC3)CC43CCOCC3)c21 [Compound 120]

Continued, compound first:

Compound	IC50 (HPK1)	IC50 (GLK) [nM]
CN(C1CC1)C1CC2(CCOCC2)c2ccc(Nc3ccc(-c4cnc5cc(F)ccn45)c4c3C(=O)NC4)nc21 (centres unmarked) [Compound 61, 7-((7-(CYCLOPROPYL(METHYL)AMINO)-2′,3′,5′,6,6′,7-HEXAHYDROSPIRO[CYCLOPENTYL[B]PYRIDINE-5,4′-PYRAN]-2-YL)AMINO)-4-(7-FLUOROIMIDAZOLE[1,2-A]PYRIDIN-3-YL)ISOINDOL-1-ONE]	7.7 nM	> 30000
CN(C)C1CC2(CCOCC2)c2ccc(Nc3ccc(-c4cnc5ncccn45)c4c3C(=O)NC4)nc21 (centres unmarked) [Compound 44]	3.05 nM	378
O=C1NCc2c(-c3cnc4cc(OC(F)F)ccn34)ccc(Nc3ccc4c(n3)C(N3CCCC3)CC43CCOCC3)c21 (centres unmarked) [Compound 169, 4-(7-(DIFLUOROMETHOXY)IMIDAZO[1,2-A]PYRIDIN-3-YL)-7-((7-(PYRROLIDIN-1-YL)-2′,3′,5′,6,6′,7-HEXAHYDROSPIRO[CYCLOPENTA[B]PYRIDINE-5,4′-PYRAN]-2-YL)AMINO)ISOINDOL-1-ONE]	9.19 nM	223
Cc1cc(Nc2ccc(-c3cnn4cc(F)ccc34)c3c2C(=O)NC3)nc2c1C1(CCOCC1)C[C@H]2N(C)C [Compound 29]	1.98 nM	9.77
COc1ccn2c(-c3ccc(Nc4ccc5c(n4)C(N(C)C)CC54CCOC4)c4c3CNC4=O)cnc2c1 (centres unmarked) [Compound 180, 7-((7-(DIMETHYLAMINO)-4′,5′,6,7-TETRAHYDRO-2′H-SPIRO[CYCLOPENTADIENYL[B]PYRIDINE-5,3′-FURAN]-2-YL)AMINO)-4-(7-METHOXYIMIDAZO[1,2-A]PYRIDIN-3-YL)ISOINDOLIN-1-ONE]	13.9 nM	3910
CN(C)C1CCC2(CCOCC2)c2ccc(Nc3ccc(-c4cnc5cc(F)ccn45)c4c3C(=O)NC4)nc21 (centres unmarked) [Compound 3]	4.16 nM	2860
O=C1NCc2c(-c3cnc4cc(F)ccn34)ccc(Nc3ccc4c(n3)C(N3CCC3)CC43CCOCC3)c21 (centres unmarked) [Compound 39, 7-(7-(AZETIDIN-1-YL)-2′,3′,5′,6,6′,7-HEXAHYDROSPIRO[B]PYRIDINE-5,4′-PYRAN]-2-YL)AMINO)-4-(7-FLUOROIMIDAZO[1,2-A]PYRIDIN-3-YL)ISOINDOL-1-ONE]	3.7 nM and 2.78 nM	88.2
O=C1NCc2c(-c3cnc4cc(F)ccn34)ccc(Nc3ccc4c(n3)C(N3CCOCC3)CC43CCOCC3)c21 (centres unmarked) [Compound 59, 4-(7-FLUOROIMIDAZO[1,2-A]PYRIDIN-3-YL)-7-(7-MORPHOLIN-2′,3′,5′,6,6′,7-HEXAHYDROSPIRO[B]PYRIDIN-5,4′-PYRAN]-2-YL)AMINO)ISOINDOL-1-ONE]	6.09 nM	> 30000
CN(C)Cc1nc(Nc2ccc(-c3cnc4cc(F)ccn34)c3c2C(=O)NC3)cc2c1C1(CCOCC1)NC2 [Compound 55]	7.56 nM	2150
CN(C)C1CCC2(CCOCC2)c2ccc(Nc3ccc(-c4cnn5ccccc45)c4c3C(=O)NC4)nc21 (centres unmarked) [Compound 33]	4.76 nM	631
N#Cc1ccn2c(-c3ccc(Nc4ccc5c(n4)CCCC54CCOCC4)c4c3CNC4=O)cnc2c1 [Compound 146, 3-(7-((2,3,5,6,7′,8′-HEXAHYDRO-6′-H-SPIRO[PYRAN-4,5′-[1,7]NAPHTHYRIDINE]-2′-YL)AMINO)-1-OXOISOINDOL-4-YL)IMIDAZO[1,2-A]PYRIDINE-7-CARBONITRILE]	4.33 nM	1230
CNC1CC2(CCOCC2)c2ccc(Nc3ccc(-c4cnc5cc(F)ccn45)c4c3C(=O)NC4)nc21 (centres unmarked) [Compound 60, 4-(7-FLUOROIMIDAZO[1,2-A]PYRIDIN-3-YL)-7-((7-(METHYLAMINO)-2′,3′,5′,6,6′,7-HEXAHYDROSPIRO[B]PYRIDIN-5,4′-PYRAN]-2-YL)AMINO)ISOINDOL-1-ONE]	2.14 nM	123
CN(C)C1CC2(CCOCC2)c2ccc(Nc3ccc(-c4cnc5c(F)c(F)ccn45)c4c3C(=O)NC4)nc21 (centres unmarked) [Compound 43, 4-(7,8-DIFLUOROIMIDAZO[1,2-A]PYRIDIN-3-YL)-7-((7-(DIMETHYLAMINO)-2′,3′,5′,6,6′,7-HEXAHYDROSPIRO [B]PYRIDIN-5,4′-PYRAN]-2-YL)AMINO)ISOINDOL-1-ONE]	4.22 nM	657
CN(C)C1CC2(CCOC2)c2ccc(Nc3ccc(-c4cnc5cc(OC(F)F)ccn45)c4c3C(=O)NC4)nc21 (centres unmarked) [Compound 172, 4-(7-(DIFLUOROMETHOXY)IMIDAZO[1,2-A]PYRIDIN-3-YL)-7-((7-(METHYLAMINO)-4′,5′,6,7-TETRAHYDRO-2′-H-PYRIDO[CYCLOPENTYL[B]PYRIDINE-5,3′-FURAN]-2-YL)AMINO)ISOINDOLIN-1-ONE]	13.8 nM	1120
CN(C)C1CC2(CCOCC2)c2ccc(Nc3ccc(-c4cnn5cc(F)ccc45)c4c3C(=O)NC4)nc21 (centres unmarked) [Compound 36]	2.73 nM	78
CN(C)C1CCC2(CCOCC2)c2ccc(Nc3ccc(-c4cnn5cc(F)ccc45)c4c3C(=O)NC4)nc21 (centres unmarked) [Compound 32]	4.52 nM	596
CN(C)C1CC2(CCOCC2)c2ccc(Nc3ccc(-c4cnc5cc(N)ccn45)c4c3C(=O)NC4)nc21 (centres unmarked) [Compound 174, 4-(7-AMINOIMIDAZO[1,2-A]PYRIDIN-3-YL)-7-((7-(DIMETHYLAMINO)-2′,3′,5′,6,6′,7-HEXAHYDROSPIRO[CY CLOPENTADIENYL[B]PYRIDINE-54′-PYRAN]-2-YL)AMINO)ISOINDOL-1-ONE]	19.2 nM	566
CN(C)C1CC2(CCOCC2)c2ccc(Nc3ccc(-c4cnc5cc(F)c(Cl)cn45)c4c3C(=O)NC4)nc21 (centres unmarked) [Compound 46, 4-(6-CHLORO-7-FLUOROIMIDAZO[1,2-A]PYRIDIN-3-YL)-7-((7-(DIMETHYLAMINO)-2′,3′,5′,6,6′,7-HEXAHYDRO SPIRO[B]PYRIDIN-5,4′-PYRAN]-2-YL)AMINO)ISOINDOLIN-1-ONE]	11.8 nM	971
CN(C)C1CC2(CCOCC2)c2ccc(Nc3ccc(-c4cnc5cc(Cl)ccn45)c4c3C(=O)NC4)nc21 (centres unmarked) [Compound 42]	4.62 nM	119
CN(C)C1CC2(CCOCC2)c2ccc(Nc3ccc(-c4cnc5cc(C(F)F)ccn45)c4c3C(=O)NC4)nc21 (centres unmarked) [Compound 160, 4-(7-(DIFLUOROMETHYL)IMIDAZO[1,2-A]PYRIDIN-3-YL)-7-((7-(METHYLAMINO)-2′,3′,5′,6,6′,7-HEXAHYDRO SPIRO[CYCLOPENTANE[B]PYRIDINE-5,4′-PYRAN]-2-YL)AMINO)ISOINDOL-1-ONE]	6.57 nM	460
